Converted amounts (≈) assume the structure as drawn.

The nature of data set [1]: physchem.
Data set [2] can be described thus: Soluble acyclovir in acyclovir sodium gels by centrifugation and HPLC. The conditions noted are these: for soluble species contributing to soluble acyclovir: 88 mole % sodium hydroxide, based on base charge / calculated by difference. The source says:
The presence or absence of a pellet was noted and an aliquot of the supernatant was removed for dilution and analysis by HPLC.
(§1) Essentially the same values are obtained from the propylene glycol/water formulations. […] The observed pH of the 88% neutralized solutions is weakly affected by the cosolvent to water ratio.

For data set [3] the following is noted: pH 7; cited from earlier work.
Data set [4] is described as follows: Solubility of acyclovir and sodium acyclovir in water and cosolvent mixtures. As to conditions: propylene glycol/water solution, aqueous with cosolvent or surfactant or cyclodextrin.
Data set [5] in a line: physchem. The conditions noted are these: pH 11.
Description: as §1

For orientation: solubility means how much of the substance goes into solution per volume. With `Nc1nc2c(ncn2COCCO)c(=O)[nH]1` [sodium acyclovir], in the data set “physchem [1]” (water), the solubility is more than 100 mg/mL. For the same compound, the “soluble species contributing to soluble acyclovir” value in data set [2] (glycerin solutions) was 5.0%. For the same compound, the “solubility in gels with complete neutralization” value in data set [2] (105 and 116 mole % sodium hydroxide) is reported as “greater than 5.7 weight percent”.

As a reminder, the pKa is the pH at which an ionisable group is half protonated. For the compound `Nc1nc2c(ncn2COCCO)c(=O)[nH]1` [acyclovir], in data set [3], the solubility in water is recorded as 1.3 mg/mL (≈ 5.77 mM). Besides, the solubility in data set [4] stood at 3 mg/mL (≈ 13.3 mM); in the data set “physchem [1]” (pH 7, aqueous with cosolvent or surfactant or cyclodextrin) it was 3 mg/mL (≈ 13.3 mM). Besides, the pKa in the data set “physchem [5]” was determined as 9.8. For the same compound, the “soluble species contributing to soluble acyclovir” value in data set [2] (glycerin solutions, listed as neutral acyclovir) is 0.3%. Moreover, the “soluble acyclovir (total)” value in data set [2] (partial neutralization (88 mole % sodium hydroxide), glycerin solutions) is on record as 5.3%.

These data come from patent publication US20070248629A1, “PHARMACEUTICAL FORMULATIONS FOR IONTOPHORETIC DRUG DELIVERY” (priority 2006, published 2007).
